Laboratory results from patent publication US9360486B2, “Allergen fragments” (Biomay AG, priority 2007, dated 2016).

System: Amb a 1-specific T cell lines (TCL)
Assay: T cell epitope mapping of Amb a 1.3: proliferation (3H-thymidine uptake) of TCL stimulated with synthetic peptides
Type: cell-based, human
Settings: for No. positive patients SI > 3 / No. positive patients SI > 5 / % (positive patients SI > 3) / % (positive patients SI > 5): TCL from 48 ragweed pollen-allergic patients, peptide 5 μg/ml; for No. positive patients SI > 3 / No. positive patients SI > 5: 3H-thymidine uptake after 48 hrs; for No. positive patients SI > 3 / % (positive patients SI > 3): stimulation index > 3; for No. positive patients SI > 5 / % (positive patients SI > 5): stimulation index > 5; for T cell activating region recognized by % of patients: classes of prevalence referring to SI>5, 48 TCL
Description: The T cell response to Amb a 1 was characterized in detail using the established in vitro culture system (Jahn-Schmid et al., J. Immunol. 169: 6005-11, 2002; Jahn-Schmid et al., J. Allergy Clin. Immunol., 115: 399-404, 2005). In total, 85 clinically well-defined patients (75 from Vienna/10 from Milano) with typical case history, positive skin prick test and CAP/RAST tests for ragweed extract were included.
Peripheral blood mononuclear cells (PBMC) were isolated from heparinized blood of allergic patients by Ficoll density gradient centrifugation. To generate allergen-specific T cell lines (TCL) and T cell clones (TCC), 1.5×10^6 PBMC were stimulated with optimal doses of ragweed or mugwort extract (4 μg/ml) or rAmb a 1.3 (10 μg/ml) in 24-well flat-bottomed culture plates (Costar, USA). After 5 days human rIL-2 (10 U/ml, Boehringer, Mannheim, Germany) were added and cultures were continued for additional 7 days. Then, T cell blasts were isolated by density centrifugation. The majority of T cell blasts was further expanded with IL-2 and irradiated PBMC. A small number of T cell blasts were used to establish monoclonal T cell cultures by limiting dilution: 0.3 T cells/well were seeded into 96 well round bottom plates (Nunclone) in the presence of 2×10^5 irradiated (60 Gy) PBMC, 0.25% v/v PHA (Gibco, USA) and rIL-2 (4 U/well) in the medium mentioned above. After 14-21 days, growing microcultures were expanded at weekly intervals with irradiated PBMC and rIL-2. The specificity of TCC was assessed in proliferation assays using irradiated allogeneic or HLA-matched PBMC or irradiated EBV-transformed allogeneic B-cells and 5 μg/ml Amb a 1.3. After 48 hours, cellular uptake of tritiated (^3H)-thymidine was performed to measure proliferation in counts per minute (cpm). When the stimulation index (SI; ratio between cpm obtained in cultures containing TCC plus autologous APC plus antigen, and cpm obtained in cultures containing TCC and APC alone) was >10, responses were considered as positive. Allergen-specific TCC were expanded by alternating turns of stimulation with autologous irradiated APC and allergen or with allogeneic feeder cells and rIL-2.
Amb a 1-specific TCL and TCC were used to identify T cell epitopes of Amb a 1.3. T cell cultures were stimulated with a panel of 121 synthetic 12-mer peptides and one 13-mer representing the C-terminal peptide of Amb a 1.3 (Pepset, Biotrend, Germany). Peptides had been synthesized according to the Amb a 1.3 amino acid sequence and overlapped for 9 amino acid residues with the neighbouring peptides (Table 1). Peptides were used at a concentration of 5 μg/ml for stimulation and proliferation of T cell cultures was determined after 48 hrs by ^3H-thymidine-uptake. Because of the frequently observed high background caused by auto-reactivity in TCL, the mean of the cpm observed with the ten least stimulating peptides (none of the peptides was toxic) was used as negative control in calculations of SI. Throughout this manuscript, a peptide comprised one T cell epitope when the stimulation index was at least 3.0.
T cell epitope mapping of Amb a 1.3 was performed evaluating 48 TCL from different patients ([…]), which had been initiated with ragweed extract (containing the natural allergen) or rAmb a 1.3 (Table 2). TCL induced with either ragweed extract or rAmb a 1.3 from the same individual recognized similar T cell epitopes (Table 2; FIG. 7). […] Therefore, their data were combined for further analysis (Table 3). Typical for many inhalant allergens, multiple T cell activating regions were detected in Amb a 1.3. The number of peptides recognized by T cells from a single individual ranged from 2 to maximum 60 peptides with a mean of 17.8 peptides (median=16/for SI>3; resp. 0-36/11.9/12 for SI>5) (see Table 3). In total, 26 relevant (i.e. recognized by ≧10% of patients studied) T cell activating regions comprising 12-18 aa were identified. […]

| Sequence | No. positive patients SI > 3 | No. positive patients SI > 5 | % (positive patients SI > 3) [%] | % (positive patients SI > 5) [%] | reactivity with T cells isolated from allergic individuals | T cell activating region recognized by % of patients | T cell reactivity with samples from individuals suffering from ragweed pollen allergy |
| --- | --- | --- | --- | --- | --- | --- | --- |
| AAAQNRPLWIIF (Amb a 1 fragment) [Peptide 29] | 4 | 3 | 8.3 | 6.3 | – | – | – |
| AEPGEAAIKLTS (Amb a 1 fragment) [Peptide 117] | 4 | 3 | 8.3 | 6.3 | – | – | – |
| AIKLTSSAGVLS (Amb a 1 fragment) [Peptide 119] | 16 | 10 | 33.3 | 20.8 | reactivity with T cells | – | – |
| AIKLTSSAGVLSCRP (Amb a 1 fragment) [Peptide 119-120] | – | – | – | – | reactivity with T cells | – | – |
| AKGTYGGKWGDV (Amb a 1 fragment) [Peptide 18] | 1 | 0 | 2.1 | 0.0 | – | – | – |
| ALADCAQGFAKG (Amb a 1 fragment) [Peptide 15] | 4 | 2 | 8.3 | 4.2 | – | – | – |
| AWNWRSDKDLLE (Amb a 1 fragment) [Peptide 105] | 4 | 3 | 8.3 | 6.3 | – | – | – |
| CKFTQQSKAILL (Amb a 1 fragment) [Peptide 71] | 4 | 2 | 8.3 | 4.2 | – | – | – |
| CSLSKSFDGLVD (Amb a 1 fragment) [Peptide 63] | 2 | 2 | 4.2 | 4.2 | – | – | – |
| DCAQGFAKGTYG (Amb a 1 fragment) [Peptide 16] | 2 | 0 | 4.2 | 0.0 | – | – | – |
| DGPPILRQASDG (Amb a 1 fragment) [Peptide 54] | 4 | 2 | 8.3 | 4.2 | – | – | – |
| DKCWRGKADWEN (Amb a 1 fragment) [Peptide 10] | 2 | 2 | 4.2 | 4.2 | – | – | – |
| DKDLLENGAIFV (Amb a 1 fragment) [Peptide 107] | 30 | 27 | 62.5 | 56.3 | reactivity with T cells | – | – |
| DKDLLENGAIFVTSG (Amb a 1 fragment) [Peptide 107-108] | – | – | – | – | reactivity with T cells | recognized by 56.3% | – |
| DKDLLENGAIFVTSGSDPVLTPVQ (Amb a 1 fragment) [Peptide 107-111] | – | – | – | – | reactivity with T cells | – | – |
| DTHVQDKGMLAT (Amb a 1 fragment) [Peptide 76] | 4 | 1 | 8.3 | 2.1 | – | – | – |
| DTINVAGSSQIW (Amb a 1 fragment) [Peptide 58] | 3 | 1 | 6.3 | 2.1 | – | – | – |
| DVANPKEGTLRF (Amb a 1 fragment) [Peptide 25] | 2 | 0 | 4.2 | 0.0 | – | – | – |
| EAYNIIDKCWRG (Amb a 1 fragment) [Peptide 8] | 3 | 1 | 6.3 | 2.1 | – | – | – |
| EGTLRFAAAQNR (Amb a 1 fragment) [Peptide 27] | 5 | 5 | 10.4 | 10.4 | reactivity with T cells | – | – |
| EGTLRFAAAQNRPLW (Amb a 1 fragment) [Peptide 27-28] | – | – | – | – | reactivity with T cells | recognized by 22.9% | – |
| EIINGGLTLMNV (Amb a 1 fragment) [Peptide 42] | 11 | 5 | 22.9 | 10.4 | reactivity with T cells | recognized by 10.4% | – |
| EILPSVNETRSL (Amb a 1 fragment) [Peptide 3] | 1 | 0 | 2.1 | 0.0 | – | – | – |
| ESMAWNWRSDKD (Amb a 1 fragment) [Peptide 104] | 2 | 1 | 4.2 | 2.1 | – | – | – |
| FDGLVDVTLGST (Amb a 1 fragment) [Peptide 65] | 2 | 1 | 4.2 | 2.1 | – | – | – |
| FGFFQVVNNNYD (Amb a 1 fragment) [Peptide 86] | 12 | 10 | 25.0 | 20.8 | reactivity with T cells | recognized by 20.6% | high T cell reactivity |
